Assay results published in US7034024B1, “Product inhibiting transduction of G heterotrimeric protein signals combined with another anti-cancer agent for therapeutic use in cancer treatment” (Societe de Conseils de Recherches et d'Applications …, priority 1999, dated 2006).

System: Mia-Paca2 cells (human pancreatic cancer cells)
Assay: Measurement of cell proliferation in vitro (WST1 colorimetric test, polyhema-coated plates)
Type: cell-based
Parameters: Observed values (living cells): scale not given here
Conditions: for Compound B1 alone (observed value of living cells) / Compound B5 alone (observed value of living cells): 0 μM = 100; for Compound B4 alone (observed value of living cells) / Compound B2 alone (observed value of living cells) / Compound B3 alone (observed value of living cells): 0 nM = 100
Description: The cell line Mia-Paca2 (human pancreatic cancer cells) was acquired from the American Tissue Culture Collection (Rockville, Md., USA).
The Mia-Paca2 cells (1500 cells/wells) are cultured in 96-well plates pre-coated with polyhema (Sigma) which allows only the growth of cells presenting a tumorigenic phenotype.
On day 0, these cells are seeded in 90 μl of Dulbecco's modified Eagle medium (Gibco-Brl, Cergy-Pontoise, France) completed with 10% of foetal calf serum inactivated by heating (Gibco-Brl, Cergy-Pontoise, France), 50000 units/l of penicillin and 50 mg/l streptomycin (Gibco-Brl, Cergy-Pontoise, France), and 2 mM of glutamin (Gibco-Brl, Cergy-Pontoise, France).
The cells were treated with increasing concentrations of two products alone or combined in a matrix, i.e.: on day 1, with the first product for 96 hours and on day 2 with the second product for 72 hours. According to method α, the transduction inhibitor of heterotrimeric G protein signals with which the anti-cancer agent is combined is administered before the latter, then according to method β, it is done so after.
At the end of this period, quantification of cell proliferation is evaluated by a colorimetric test based on the cleavage of the tetrazolium salt WST1 by mitochondrial dehydrogenases in the living cells leading to the formation of formazan (Boehringer Mannheim, Meylan, France). These tests are carried out in duplicate with 4 measurements for each single product and for each combination tested. This allows the number of living cells at the end of each treatment to be determined, i.e. the observed value. The calculated value of the living cells for each treatment corresponds to the multiplication of the observed values of the effects of separate products. These observed and calculated values are compared for each combination. When the observed value of living cells is lower than the calculated value of the living cells, a synergy is considered to exist. When the observed value is equal to the calculated value, a additive effect is considered to exist. When the observed value is greater than the calculated value, an antagonism is considered to exist.

For “1-(2-(1-((4-cyano)phenylmethyl)imidazol-4-yl)-1-oxoethyl-2,5-dihydro-4-(2-methoxyphenyl)imidazo[1,2c][1,4]benzodiazepine [compound B1]”, the “Compound B1 alone (observed value of living cells)” value (“Compound B1 alone” below) (B1 0.04 μM alone, Table I) was 94 ± 2.3, the “Compound B1 alone” value (B1 0.2 μM alone, Table I) was 80 ± 4.2 and the “Compound B1 alone” value (B1 1 μM alone, Table I) was 68 ± 2.3.
For “4-(2-bromophenyl)-1-(2-(1-((4-cyano-3-methoxy)phenylmethyl)-imidazo-5-yl)-1-oxoethyl)-1,2-dihydro-8-fluoro-imidazo[1,2a][1,4]-benzodiazepine [compound B5]”, the “Compound B5 alone (observed value of living cells)” value (B5 0.2 μM alone, Table V) was 86 ± 0.9 and the “Compound B5 alone (observed value of living cells)” value (B5 1 μM alone, Table V) was 63 ± 2.6.
In the case of `Cn1cncc1C(N)(c1ccc(Cl)cc1)c1ccc2c(c1)c(-c1cccc(Cl)c1)cc(=O)n2C` (racemic) [compound B4, (±)-4-(3-chlorophenyl)-6-[(4-chlorophenyl)-amino-(1-methyl-1H-imidazol-5-yl)methyl]-1-methyl-2(1H)quinolinone, reference compound], the “Compound B4 alone (observed value of living cells)” value (shortened to “Compound B4 alone”) (B4 40 nM alone, Table IV) is reported as 104 ± 2.0, the “Compound B4 alone” value (B4 0.2 μM alone, Table IV) is reported as 90 ± 9.0 and the “Compound B4 alone” value (B4 1 μM alone, Table IV) is reported as 72 ± 3.
`Cc1ccccc1-c1cn2c(n1)C(CC1CCCCC1)N(C(=O)C(N)CS)CC2` (stereo not shown) [compound A1, 7-(2-amino-1-oxo-3-thiopropyl)-8-(cyclohexylmethyl)-2-(2-methylphenyl)-5,6,7,8-tetrahydroimidazo[1,2a]pyrazine] was tested, and the “Observed values (living cells)” value (A1 20 μM alone (B1 0 μM), method α, n = 4, Table I) was 51 ± 8.9, the “Observed values (living cells)” value (A1 20 μM alone (B2 0 nM), method α, n = 3, Table II) was 49 ± 7.7 and the “Observed values (living cells)” value (A1 20 μM alone (B3 0 nM), method α, n = 3, Table III) was 65 ± 7.3.
`NC(CS)C(=O)N1CCn2cc(-c3ccccc3)nc2C1CC1CCCCC1` (stereo not shown) [compound A2, 7-(2-amino-1-oxo-3-thiopropyl)-8-(cyclohexylmethyl)-2-phenyl-5,6,7,8-tetrahydroimidazo[1,2a]pyrazine] was tested, and the “Observed values (living cells)” value (A2 20 μM alone (B4 0 nM), method β, n = 2, Table IV) was 42 ± 11.0 and the “Observed values (living cells)” value (A2 20 μM alone (B5 0 μM), method β, n = 3, Table V) was 44 ± 6.4.
`CC(=O)O[C@H]1C(=O)[C@@]2(C)[C@H]([C@H](OC(=O)c3ccccc3)[C@]3(O)C[C@H](OC(=O)[C@H](O)[C@@H](NC(=O)c4ccccc4)c4ccccc4)C(C)=C1C3(C)C)[C@]1(OC(C)=O)CO[C@@H]1C[C@@H]2O` [compound B2, taxol, reference compound] was tested, and the “Compound B2 alone (observed value of living cells)” value (“Compound B2 alone” for short) (B2 0.8 nM alone, Table II) was 100 ± 5.8, the “Compound B2 alone” value (B2 4 nM alone, Table II) was 100 ± 0.3 and the “Compound B2 alone” value (B2 20 nM alone, Table II) was 60 ± 10.6.
For `Nc1ccn([C@@H]2O[C@H](CO)[C@@H](O)C2(F)F)c(=O)n1` [compound B3, gemcitabine, reference compound], the “Compound B3 alone (observed value of living cells)” value (“Compound B3 alone” below) (B3 4 nM alone, Table III) was 95 ± 9.8, the “Compound B3 alone” value (B3 20 nM alone, Table III) was 72 ± 11.5 and the “Compound B3 alone” value (B3 100 nM alone, Table III) was 62 ± 1.9.
